Columns and labels:
[1] = tested on: HCT116 (human colon carcinoma); experiment: Alamar blue cytotoxicity assay, HCT116; type: cell-based; conditions: HCT-116, 72 h incubation
Procedure: (§1) The in vitro cytotoxic activity of the compounds (Table 1) was evaluated against cancer cell lines HCT116 (human colon carcinoma), HepG2 (human hepatocellular carcinoma), B16F10 (murine melanoma carcinoma) and non-cancerous cell line MRC-5 (human lung fibroblast) using the Alamar blue assay after 72 h of incubation; doxorubicin (DOX) was used as a positive control. The unsubstituted derivatives on the acridine cores were encoded as CL, and the disubstituted derivatives as DL.
(§2) The human cancer cell lines HCT116 (colon carcinoma) and HepG2 (hepatocellular carcinoma), the mouse cancer cell line B16-F10 (melanoma), and the non-cancerous human cell line MRC-5 (lung fibroblast) were obtained from the American Type Culture Collection (ATCC, Manassas, VA, USA) and cultured according to the ATCC animal cell culture guide. All cell lines tested negative for mycoplasma using a mycoplasma stain kit.
(§3) Cell viability was measured using the Alamar blue assay, as previously described. Cells were seeded in 96-well plates for all experiments. The compounds were dissolved in dimethyl sulfoxide (DMSO, Sigma-Aldrich) and added to each well in eight serial concentrations ranging from 0.19 to 25 μg/mL. As a positive control, doxorubicin was used. After 72 h of treatment, 20 μL of resazurin (0.312 mg/mL) was added to each well. A SpectraMax 190 Micro-plate Reader was used to measure absorbances at 570 and 595 nm (Molecular Devices, Sunnyvale, CA, USA). Nonlinear regression with 95% confidence intervals (CI 95%) was used to calculate the inhibitory concentration of 50% (IC50) using GraphPad Prism software (Intuitive Software for Science; San Diego, CA, USA).

[2] = tested on: HepG2 (human hepatocellular carcinoma); experiment: Alamar blue cytotoxicity assay, HepG2; type: cell-based; conditions: 72 h incubation
Procedure: as §1, §2, §3

[3] = tested on: Swiss mice; experiment: Acute toxicity study (14 days), OECD guideline 423; type: in vivo; conditions: for Organ mass Heart (g) / Organ mass Kidneys (g) / Organ mass Liver (g) / Organ mass Lungs (g) / Organ mass Speleen (g): after acute toxicity study; for Organ mass Heart (g) / Organ mass Kidneys (g) / Organ mass Liver (g) / Organ mass Lungs (g) / Organ mass Speleen (g) / Food (g/day) / Water (mL/day) / Weight gain (g): 2000 mg/kg oral; for Food (g/day) / Water (mL/day) / Weight gain (g): during acute toxicity study; for DA/TA (dead animals/total animals) / Mortality (%) / Signs of Toxicity: single oral dose 2000 mg/kg, female mice, 14 days
Procedure: Based on the low selectivity found in the in vitro cytotoxicity, we decided to perform a preclinical in vivo toxicological analysis on mice to understand the pharmacological profiles of the derivatives described herein. After oral administration of acridine–thiosemicarbazone derivatives to female mice, possible adverse clinical signs and mortality in the groups of animals submitted to the acute toxicity study were recorded (Table 6), as well as absolute body mass, food and water consumption, and the average masses of the organs of the animals treated with the compounds and the control group.
An acute toxicity study was conducted according to Organization for Economic Co-operation and Development (OECD) guideline 423 (OECD 2001) with modifications (National Health Surveillance Agency Brazil, 2013). In principle, the method is not intended to allow an accurate calculation of the lethal dose (LD50), despite providing an estimate of its value; however, it allows a classification of the substance into categories according to the Globally Harmonized Classification System (GHS). The tests were carried out with the consent of the ethics council of the State University of Paraiba (process no. 008/2021, approved 9 November 2021). Swiss mice, three females per group, were subjected to single oral doses of 2000 mg/kg of acridine–thiosemicarbazone derivatives, and to the control group, we administered only the vehicle (12% Tween 80 solution in saline).
After the end of treatment with acridine–thiosemicarbazone derivatives, the animals were anesthetized with a xylazine–ketamine solution of 0.2 mL/100 g (8.75 mL ketamine (100 mg/mL) and 1.25 mL xylazine (10 mg/mL)) as per Cornell University/Cornell Center for Animal Resources and Education protocol described by Flecknell (1996). After euthanasia, a macroscopic assessment of the external body surface, cavities (thoracic, abdominal and cranial) and organs (change in position, shape, size, color and consistency) was carried out. The absolute and relative weights of the brain, lungs, liver, heart, spleen and kidneys were also determined. Relative weight was calculated using the formula: relative organ weight (%) = (weight of organ/weight of mouse) × 100 [88, 89].

[4] = tested on: K562-Lucena 1; experiment: MTT cytotoxicity assay on resistant leukemic cells, K562-Lucena 1; type: cell-based, human; conditions: for IC50: Homo sapiens, K562-Lucena 1, MTT, 72 h, multidrug-resistant
Procedure: K562 (human erythroleukemic) and its multidrug-resistant counterpart, K562-Lucena 1, were obtained from the Tumor Immunology Laboratory (Federal University of Rio de Janeiro) (Rumjanek et al., 2001) and were cultured as recommended by Daflon-Yunes et al., 2013 [93, 106, 107].
CL-07, DL-01 and DL-08 compounds were evaluated for cell viability on K562 and K562-Lucena 1 cells using the colorimetric tetrazolium method (Mosmann, 1983). Cells were plated in 96-well plates. Compounds were dissolved in 1% (v/v) DMSO and RPMI-1640 medium (Sigma-Aldrich) in five serial concentrations from 1 to 50 µg/mL and were later added to each well and incubated for 72 h at 37 °C in a 5% CO2 humidified environment. As a positive control, 1 µM staurosporine was used. Then, the cells were treated with 20 µL of 5 mg/mL 3-(4,5-dimethylthiazol-2yl)-2,5-diphenyltetrazolium bromide solution (MTT solution in phosphate buffer solution) for 3 h. At the end of treatment, absorbances at 562 nm were measured using an iMark™ Microplate Absorbance Reader (iMark™, Hercules, CA, USA). Half-inhibitory concentration (IC50) was obtained by nonlinear regression with 95% confidence intervals (CI 95%) using GraphPad Prism software (Intuitive Software for Science; San Diego, CA, USA).

Q: For `COc1ccc2nc3cc(Cl)ccc3c(NC(=S)N/N=C/c3cccc(O)c3)c2c1` [DL-08, (E)-N-(6-chloro-2-methoxyacridin-9-yl)-2-(3-hydroxybenzylidene)hydrazine-1-carbothioamide], which IC50 [1] is on record?
A: 24.2 µM

Q: And the IC50 [2]?
A: 21.3 µM

Q: What about the “Organ mass Heart (g)” value [3] of the same compound?
A: 0,427±0,035 g

Q: And the “Organ mass Kidneys (g)” value [3]?
A: 1,355±0,062 g

Q: What about the “Organ mass Liver (g)” value [3] of the same compound?
A: 5,619±0,259 g

Q: What about the “Organ mass Lungs (g)” value [3] of the same compound?
A: 0,646±0,032 g

Q: What about the “Organ mass Speleen (g)” value [3] of the same compound?
A: 0,412±0,033 g

Q: What about the “Food (g/day)” value [3] of the same compound?
A: 15,21±0,97 g/day

Q: And the “Water (mL/day)” value [3]?
A: 25,28±0,46 mL/day

Q: What about the “Weight gain (g)” value [3] of the same compound?
A: 0,76±0,43 g

Q: What about the “DA/TA (dead animals/total animals)” value [3] of the same compound?
A: 0/3

Q: What about the “Mortality (%)” value [3] of the same compound?
A: 0%

Q: And the “Signs of Toxicity” value [3]?
A: Hepatic steatosis

Q: And the IC50 [4]?
A: 17.1 µM

Q: Which IC50 [1] does the source give for `Oc1ccc(/C=N/NC(=S)Nc2c3ccccc3nc3ccccc23)cc1` [CL-07, (E)-N-(acridin-9-yl)-2-(4-hydroxybenzylidene)hydrazine-1-carbothioamide] here?
A: 39.7 µM

Q: And the IC50 [2]?
A: 50.7 µM

Q: What about the “Organ mass Heart (g)” value [3] of the same compound?
A: 0,417±0,038 g

Q: And the “Organ mass Kidneys (g)” value [3]?
A: 1,308±0,099 g

Q: What about the “Organ mass Lungs (g)” value [3] of the same compound?
A: 0,619±0,089 g

Q: And the “Organ mass Speleen (g)” value [3]?
A: 0,574±0,061 g

Q: What about the “Food (g/day)” value [3] of the same compound?
A: 14,57±1,78 g/day

Q: And the “Water (mL/day)” value [3]?
A: 23,57±1,34 mL/day

Q: And the “Weight gain (g)” value [3]?
A: 1,33±0,27 g

Q: And the “DA/TA (dead animals/total animals)” value [3]?
A: 0/3

Q: What about the “Mortality (%)” value [3] of the same compound?
A: 0%

Q: What about the “Signs of Toxicity” value [3] of the same compound?
A: None

Q: What about the IC50 [4] of the same compound?
A: 43.4 µM

Q: With `COc1ccc2nc3cc(Cl)ccc3c(NC(=S)N/N=C/c3ccccc3)c2c1` [DL-01, (E)-2-benzylidene-N-(6-chloro-2-methoxyacridin-9-yl)hydrazine-1-carbothioamide] as the compound, how does the IC50 [1] read?
A: > 60 µM

Q: What about the IC50 [2] of the same compound?
A: 21.9 µM

Q: And the “Organ mass Heart (g)” value [3]?
A: 0,410±0,039 g

Q: And the “Organ mass Kidneys (g)” value [3]?
A: 1,338±0,091 g

Q: What about the “Organ mass Liver (g)” value [3] of the same compound?
A: 5,257±0,610 g

Q: And the “Organ mass Lungs (g)” value [3]?
A: 0,640±0,057 g

Q: What about the “Organ mass Speleen (g)” value [3] of the same compound?
A: 0,551±0,037 g

Q: And the “Food (g/day)” value [3]?
A: 12,35±1,39 g/day

Q: And the “Water (mL/day)” value [3]?
A: 23,71±1,26 mL/day

Q: And the “Weight gain (g)” value [3]?
A: 0,69±0,58 g

Q: And the “DA/TA (dead animals/total animals)” value [3]?
A: 0/3

Q: What about the “Mortality (%)” value [3] of the same compound?
A: 0%

Q: And the “Signs of Toxicity” value [3]?
A: Reduced feed consumption

Q: And the IC50 [4]?
A: 16.5 µM

Q: And the “selectivity K562-Lucena 1 versus MRC-5” value ([4]; more selective than MRC-5)?
A: 2 times

From paper PMC9506480, “Synthesis and Evaluation of Antiproliferative Activity, Topoisomerase IIα Inhibition, DNA Binding and Non-Clinical Toxicity of New Acridine–Thiosemicarbazone Derivatives” (Pharmaceuticals, 2022)
